The EC50 is the concentration that produces a half-maximal response.

The target in the assay is UPR counterscreen luciferase reporter, luminescence. Put plainly: activators in UPR counterscreen luciferase reporter, dose response, counter-screen for adaptive UPR activator project, cell-based, luminescence (AID 489027). A general note: The purpose of a counterscreen is to sort out artefacts and off-target activity.

The source made the active and inactive calls. No rule for the calls is given here.

For the compound `COc1ccc(/C=N/Nc2nnc(-c3ccccc3)c(=O)[nH]2)cc1`, the EC50 was 15.6 µM.
For `COc1cccc(/C=N/Nc2ccc([N+](=O)[O-])cn2)c1O`, the EC50 is > 80 µM (inactive).
Consider `CCCCC1CCC(C(=O)N(CC(C)C)c2c(N)n(CCCC)c(=O)[nH]c2=O)CC1` (stereo not given), for which the EC50 was > 80 µM (inactive).
To `O=C1NC(=O)N(Cc2ccccc2)C(=O)/C1=C\c1ccco1` belongs “inactive”; to `CN1C(=O)/C(=C/c2ccc(C(=O)NC3CCCC3)cc2)Oc2ccccc21`, > 80 µM (inactive).
Regarding `CCC/C(=N/Nc1ccc(Cl)cc1)c1cnnc(-c2ccccc2)n1`, the EC50 entry was “inactive”.
For `COc1ccc(-c2csc(C3=C(O)CN(Cc4ccc(Cl)cc4)C3=N)n2)cc1OC`, the EC50 is > 80 µM (inactive).
Turning to `CC(=O)Nc1ccccc1Sc1ccc2c3c(cccc13)C(=O)N(c1ccc(C)cc1)C2=O`, the EC50 is > 80 µM (inactive).
As to `CCOc1ccc(Cn2c3ccc(OC)cc3c3nc4ccccc4nc32)cc1OC`, the EC50 result is “inactive”.
For the compound `N#CCC(=O)N/N=C/c1cn(Cc2cccc3ccccc23)c2ccccc12`, the EC50 was > 80 µM (inactive).
On to `CCCCNC(=O)c1ccc(Cn2c(=S)[nH]c3c([nH]c4ccc(OC)cc43)c2=O)cc1`, for which the EC50 is > 80 µM (inactive).
For the compound `O=Cc1cc2ccccc2nc1SCc1ccc(Cl)cc1`, the EC50 result is “inactive”.
On to `Oc1ccc(CN2CCC(Cc3ccccc3)CC2)c2cccnc12`, for which the EC50 was 5.55 µM.
For the compound `CC1CCC(C(C)C)C(OC(=O)Cn2c(-c3ccc(Br)cc3)[n+](C)c3ccccc32)C1` (stereo not given), the EC50 is 10.9 µM.
As to `CCCc1nc2c(c(=O)c3ccccc3n2C)c(=O)n1C1CCCCCC1`, the EC50 is > 80 µM (inactive).
Take `CC1(C)CC[C@@]23CC[C@]4(C)[C@@](OC2=O)(C3C1)[C@H]1O[C@H]1C1[C@@]2(C)CC[C@H](O)C(C)(C)C2CC[C@]14C` (stereo not given in full): the EC50 result was “inactive”.
As to `COc1ccc(-c2nnc(SCC(=O)Nc3sc4c(c3C#N)CCCC4)n2-c2ccccc2)cc1`, the EC50 is 16.1 µM.
Consider `Cc1nc2cc(NC(=O)CSc3nc4c(C)cccc4cc3C#N)ccc2s1`, for which the EC50 was > 80 µM (inactive).
Turning to `CCOC(=O)C1=C(C)N=c2s/c(=C3/C(=O)Nc4ccccc43)c(=O)n2C1c1ccc(C)cc1` (stereo not given), the EC50 is > 80 µM (inactive).
For the compound `COc1cc(-c2ccc3oc(-c4ccsc4)cc3c2)cc(OC)c1OC`, the EC50 was > 80 µM (inactive).
As to `NS(=O)(=O)c1ccc(NC(=O)COC(=O)c2cn(-c3ccccc3)nc2-c2ccc(F)cc2)cc1`, the EC50 entry was “inactive”.
As to `COc1ccc(-c2sc3ccccc3c2-c2ccc(OCCN(C)C)cc2)cc1`, the EC50 was 13.3 µM.
For the compound `Cc1cc(NC(=O)CSc2ccc(-c3nc4cc(C)c(C)cc4[nH]3)cn2)no1`, the EC50 result was “inactive”.
As for `Nc1nc(Nc2cccc(F)c2)nc2ccccc12`, the EC50 entry was “inactive”.
Consider `Cc1ccc(Cc2cnc(NC(=O)/C(C#N)=C/c3ccc(-c4ccc([N+](=O)[O-])cc4)o3)s2)cc1`, for which the EC50 was 11.3 µM.
In the case of `CC(=O)c1cccc(Nc2nc(-c3cccc([N+](=O)[O-])c3)cs2)c1`, the EC50 is > 80 µM (inactive).
Regarding `CCN(CC)c1ccc(N=Cc2c(O)n(-c3ccc(Cl)cc3)c(=O)[nH]c2=O)cc1`, the EC50 is 20 µM.
For the compound `COc1ccc2cc3c(N)nn(C(=O)C4CCC(C(C)(C)C)CC4)c3nc2c1` (stereo not given), the EC50 is > 80 µM (inactive).
Regarding `Cc1ccc(NC(=O)c2cc(S(=O)(=O)N(C)C)ccc2N2CCCC2)cc1S(=O)(=O)N(C)C`, the EC50 was 19 µM.
For `COc1ccc(OC)c(-c2nnc3n2N=C(c2ccc(OC)c(OC)c2)CS3)c1`, the EC50 was > 80 µM (inactive).
Consider `CCCC[C@@H](C)C[C@@H](C)C(=O)N(C)[C@@H](CC(C)C)C(=O)N[C@H](C(=O)N(C)[C@H](C(=O)N1C[C@@H](O)C[C@H]1C(=O)N1C(=O)C=C[C@@H]1C)C(C)C)C(C)OC(C)=O` (stereo not given in full), for which the EC50 is 7.75 µM.
`CC(C)(C)c1ccc(C(=O)Nc2ccc(O)c3c(=O)cc(-c4cccc(Cl)c4)oc23)cc1`: the EC50 was > 80 µM (inactive).
For `CCOC(=O)c1c(NC(=O)c2cc(-c3ccc(O)cc3)on2)sc(C(C)=O)c1C`, the EC50 was > 80 µM (inactive).
As to `Cn1cc(/C=C(\C#N)C(=O)Nc2cccc([N+](=O)[O-])c2)c2ccccc21`, the EC50 is > 80 µM (inactive).
Regarding `COc1cc(N(C(=O)Cc2cccs2)C(C(=O)NC2CCCCC2)c2ccc(C)cc2)ccc1-n1cnnn1` (stereo not given), the EC50 is > 80 µM (inactive).
In the case of `Cc1ccc(NC(=O)COc2ccc(/C=C3/SC(=Nc4ccccc4)N(Cc4cccnc4)C3=O)cc2)cc1`, the EC50 is 19.6 µM.
In the case of `CN(/N=C\c1ccc(O)c(O)c1)c1nc(-c2ccccc2)cc(-c2ccccc2)n1`, the EC50 was 7.52 µM.
Regarding `C/C(=N/NC(=O)c1ccc(Cl)s1)c1ccc(NC(=O)COc2ccc(Cl)cc2)cc1`, the EC50 entry was “inactive”.
On to `O=C1NC(=O)N(Cc2ccccc2Cl)C(=O)/C1=C/c1cccs1`, for which the EC50 was 13 µM.
On to `Oc1cc(-c2ccc(N3CCCCC3)nc2)cc2cccnc12`, for which the EC50 was > 80 µM (inactive).
Regarding `N#Cc1ccccc1/C=N/Nc1nc(-c2ccccc2)c2cc(Cl)ccc2n1`, the EC50 is 15.7 µM.
To `COC(=O)C1C(O)=C(C=Nc2cccc3ccccc23)C(=O)CC1(C)C` (stereo not given) belongs 1.41 µM; to `CCN(CC)c1ccc(N=Cc2c(O)n(Cc3ccccc3)c(=O)[nH]c2=O)cc1`, “inactive”.
Consider `Cc1ccc(C)c(N=Cc2c(O)c3ccccc3oc2=O)c1`, for which the EC50 entry was “inactive”.
Turning to `Cc1cc(NC(=O)c2cc(-c3ccncc3)nc3c(C)cccc23)no1`, the EC50 is 16 µM.
`CCOC(=O)/C=c1\s/c(=C\c2ccc3cc(OC)ccc3c2)c(=O)n1CC(=O)NCC1CCCO1` (stereo not given): the EC50 was > 80 µM (inactive).
To `COc1ccc(OC)c(Nc2nc(NCc3ccco3)nc(N)c2[N+](=O)[O-])c1` belongs “inactive”.
For `C=CCN(CC=C)S(=O)(=O)c1ccc(C(=O)Nc2nc3c(s2)CCc2ccccc2-3)cc1`, the EC50 is > 80 µM (inactive).
Take `Cc1ccc(C(C(=O)NCc2ccco2)N(C(=O)CNC(=O)c2cccs2)c2c(C)cc(C)cc2C)cc1` (stereo not given): the EC50 entry was “inactive”.
Take `Cc1ccc(CN2C(=O)C(=O)c3cc(C)ccc32)cc1`: the EC50 result was “inactive”.
`Cc1cc(C)c2c(c1)/C(=N/Nc1ccc(S(N)(=O)=O)cc1[N+](=O)[O-])CCC2`: the EC50 was > 80 µM (inactive).
Turning to `O=C(CSCc1ccc(Cl)cc1)Nc1ccc(-c2nnc(-c3ccccc3)o2)cc1`, the EC50 is > 80 µM (inactive).
Regarding `CC1=CC(C)[C@H](/C=N/n2c(=O)[nH]c3c([nH]c4ccc(Br)cc43)c2=O)C(C)C1` (stereo not given in full), the EC50 entry was “inactive”.
For `Cc1ccccc1OCc1nc(-c2ccc(NC(=O)c3ccc4c(c3)OCO4)cc2)no1`, the EC50 entry is “inactive”.
As to `O=c1[nH]c(CSc2ncnc3sc(-c4ccccc4)cc23)nc2ccccc12`, the EC50 was > 80 µM (inactive).
As for `N#CCC(=O)N/N=C/c1cn(Cc2ccc3ccccc3c2)c2ccccc12`, the EC50 was 15.6 µM.
`Cc1ccc(-c2nnn(CC(=O)Nc3ccc(S(=O)(=O)N4CCC(C)CC4)cc3)n2)cc1`: the EC50 entry is “inactive”.
For `NS(=O)(=O)c1ccc(N/N=C2/CCCCC2C2CCCCC2)c([N+](=O)[O-])c1` (stereo not given), the EC50 was 15 µM.
In the case of `Cc1cnc(NC(=O)c2cc(S(=O)(=O)N(C)C)ccc2N2CCCC2)s1`, the EC50 is 4.67 µM.
For the compound `O=C(COC(=O)c1ccc2[nH]c3c(c2c1)CCCC3)Nc1ccccc1Cl`, the EC50 was > 80 µM (inactive).
With `COc1ccc(-c2cc(C(F)F)n3ncc(C(=O)N4CCc5ccccc5C4)c3n2)cc1`, the EC50 entry was “inactive”.
Consider `COc1cc2nc(N3CCN(c4cc(C)ccc4C)CC3)nc(N)c2cc1OC`, for which the EC50 was 9.19 µM.
Consider `O=C(C[C@H]1C[C@H](C(=O)N2CCCCC2)[C@@]2(CCc3ccccc3)c3[nH]c4ccc(Cl)cc4c3CCN2C1=O)NCCC1=CCCCC1`, for which the EC50 entry is “inactive”.
The same measure for `CC1(C)C=Cc2c(c3c(c4c(=O)c(-c5ccc(O)cc5)coc24)OC(C)(C)CC3)O1`: 13.1 µM.
Turning to `COc1cc([C@@H]2c3cc4c(cc3[C@@H](O)[C@H]3COC(=O)[C@H]23)OCO4)cc(OC)c1O[Si](C)(C)C(C)(C)C`, the EC50 is 14.6 µM.
As to `Cc1cccc2cc(C(c3nnnn3Cc3ccccc3)N3CCCc4ccccc43)c(=O)[nH]c12` (stereo not given), the EC50 entry is “inactive”.
Regarding `Cc1cc(C)cc(NC(=O)/C(C#N)=C/c2cn(CC(=O)NCc3ccco3)c3ccccc23)c1`, the EC50 is 7.27 µM.
Take `COc1ccc(OC)c(NC(=O)c2oc3ccccc3c2NC(=O)C2CC2)c1`: the EC50 was > 80 µM (inactive).
As for `COc1cc(NC(=O)c2ccco2)c(C(=O)OCC(=O)c2c[nH]c3ccccc23)cc1OC`, the EC50 is > 80 µM (inactive).
The same measure for `C#CCOCCOCCOCCNc1nc(N2CCN(C(=O)CCCCCCCCCCNC(=O)[C@H](CCCCN)n3cc(C[C@@H](C)CC)nn3)CC2)nc(N2CCN(C(=O)CCCCCCCCCCNC(=O)[C@H](CCCN=C(N)N)n3cc(C[C@@H](C)CC)nn3)CC2)n1`: > 80 µM (inactive).
In the case of `COc1cc(OC)c2c(-c3cccc(-c4ccc(CO)cc4)c3)cc(=O)oc2c1`, the EC50 was > 80 µM (inactive).
Turning to `Nc1nc(-c2cc(O)ccc2[N+](=O)[O-])cc(-c2ccccc2)c1[N+](=O)[O-]`, the EC50 is 7.88 µM.
The same measure for `Cc1ccc2c(=O)[nH]c(Nc3nc(C)cc(-c4ccccc4)n3)nc2c1`: > 80 µM (inactive); for `CCOc1ccc(C(=O)Nc2cc(-c3nc4ccccc4[nH]3)ccc2Cl)cc1[N+](=O)[O-]`: 17.7 µM; for `CCC(Sc1nnc2c3ccccc3n(CC)c2n1)C(=O)Nc1sc2c(c1C#N)CCCC2` (stereo not given): “inactive”.
As to `Cc1nc2ccccc2n1-c1nc(-c2ccco2)cc(C(F)(F)F)n1`, the EC50 is 11.1 µM.
To `Cc1ccc(NC(=O)c2nc[nH]c2C(=O)NCCCNC(=O)c2[nH]cnc2C(=O)Nc2ccc(C)cc2)cc1` belongs > 80 µM (inactive).
With `Cc1ccnc(N/C=C(\C#N)c2nc(-c3cccc(Br)c3)cs2)c1`, the EC50 is 19 µM.
Consider `CCc1ccc(N2C(=O)NC(=O)/C(=C\c3cccn3CCOc3ccc(C(C)C)cc3)C2=O)cc1`, for which the EC50 was 6.38 µM.
As for `Cc1ccc(N=Cc2c(O)n(-c3ccc4c(c3)OCO4)c(=O)c3ccccc23)cc1`, the EC50 was > 80 µM (inactive).
